Measured values from patent US9745302B2 (TriOptoTec GmbH, priority 2011, dated 2017).
Counter-ions that a name gives are not always drawn.

Assays:
[1] = test system: Escherichia coli (ATCC number: 25922); assay: Phototoxicity test (photodynamic inactivation, CFU count by Miles and Misra); assay type: cell-based; conditions: irradiated at 50 mW/cm^2, 210 sec, 390-500 nm, CFU/ml counted after 24 h, median of 3
Method: (§1) A sample of the bacterial strain Staphylococcus aureus (ATCC number: 25923) or Escherichia coli (ATCC number: 25922) was taken from a cryogenically frozen culture, isolated on Müller-Hinton agar plates and cultivated under aerobic conditions at 37° C. in an overnight culture. Thereafter, 5 ml of Müller-Hinton liquid medium were inoculated with a smear of the bacterial culture (single colony) and incubated at 37° C. overnight. The bacterial suspension thus obtained was centrifuged at 2500 rpm for 10 min and the bacterial pellet obtained was resuspended in 5 ml of sterile PBS. The optical density of the bacterial suspension for the phototoxicity tests was OD600 nm=0.6, which corresponds to a bacteria count of ˜[…] bacteria per ml. The biochemical analysis and resistance determination of the bacteria were conducted with the VITEK2 system according to the M100-S14 guidelines from the NCCLS (2004).
(§2) 200 μl of a bacterial suspension (bacterial density: 10^8-10^12/ml) were incubated with 200 μl of each of various concentrations of the photosensitizers to be tested at room temperature for 10 min or 30 min. Thereafter, the bacteria were washed twice with distilled water and resuspended in 200 μl of distilled water, and the entire volume was transferred to a 96-well microtiter plate and then irradiated. The photosensitizers used were dissolved in distilled water and various dilution series were prepared (0 μM, 1 μM, 10 μM, 100 μM).
(§3) For sensitization, the Omnicure Series 2000 lamp (Photonics Solutions Inc., Edinburgh, UK) was used, which emits light from a range from 390 nm to 500 nm and has emission maxima Emax at 405 nm and 436 nm. The power applied in each case was 50 mW/cm^2.
(§4) Irradiated and unirradiated samples were used as controls. Likewise run were bacterial suspensions incubated only with photosensitizer (dark control).
(§5) The determination of the colony-forming units (CFU) per ml was conducted by the method published by Miles and Misra (Miles, A A; Misra, S S, Irwin, J O (1938 November). “The estimation of the bactericidal power of the blood.”. The Journal of hygiene 38 (6): 732-49). For this purpose, serial dilutions from 10^−2 to 10^−9 of the corresponding bacterial suspension were prepared. 3×20 μl of each of the corresponding bacterial dilutions were then dripped onto Müller-Hinton plates and incubated at 37° C. for 24 h. Thereafter, the number of surviving colony-forming units (CFU) was determined. Each of the experiments was repeated three times.
(§6) The effectiveness of phototoxicity with respect to bacteria after irradiation was defined according to the following guidelines for hand hygiene in the health sector (Boyce, J. M., and D. Pittet. 2002. Guideline for Hand Hygiene in Health-Care Settings: recommendations of the Healthcare Infection Control Practices Advisory Committee and the HICPAC/SHEA/APIC/IDSA Hand Hygiene Task Force. Infect Control Hosp Epidemiol 23: p. 3-40): • reduction in the CFU/ml by 1 log10 stage ? 90% effectiveness • reduction in the CFU/ml by 3 log10 stages ? 99.9% effectiveness • reduction in the CFU/ml by 5 log10 stages ? 99.999% effectiveness
(§7) For effective inactivation, the decrease of ≧3 log10 stages can therefore be adopted, and S. aureus and E. coli were chosen as examples of representatives from the group of the Gram-positive and Gram-negative bacteria (see Boyce J. M and D. Pittet 2009).

[2] = test system: Staphylococcus aureus (ATCC number: 25923); assay: as above; assay type: cell-based; conditions: irradiated at 50 mW/cm^2, 210 sec, 390-500 nm, CFU/ml counted after 24 h, median of 3
Method: as §1, §2, §3, §4, §5, §6, §7

| Structure (SMILES) | Required concentration [μM] to achieve a reduction by ≧3log10 stages (decrease by 99.9%), irradiation at 10.5 J/cm^2, E. coli ([1]; incubation 10 min) [μM] | Required concentration [μM] to achieve a reduction by ≧3log10 stages (decrease by 99.9%), irradiation at 10.5 J/cm^2, S. aureus ([2]; incubation 10 min) [μM] | Required concentration [μM] to achieve a reduction by ≧3log10 stages (decrease by 99.9%), irradiation at 10.5 J/cm^2, E. coli ([1]; incubation 30 min) | Required concentration [μM] to achieve a reduction by ≧3log10 stages (decrease by 99.9%), irradiation at 10.5 J/cm^2, S. aureus ([2]; incubation 30 min) [μM] |
| --- | --- | --- | --- | --- |
| Cc1cc2nc3c(=O)[nH]c(=O)nc-3n(CC(OC(=O)C(N)CCCCN)C(OC(=O)C(N)CCCCN)C(COC(=O)C(N)CCCCN)OC(=O)C(N)CCCCN)c2cc1C (centres unmarked) | 10 | 10 |  |  |
| Cc1cc2nc3c(=O)n(CCN)c(=O)nc-3n(CCN)c2cc1C [FL-02, 3,10-bis(2′-aminoeth-1′-yl)-7,8-dimethylbenzo[g]pteridine-2,4-dione hydrochloride] | 10 | 10 |  |  |
| CC(=O)OCC(OC(C)=O)C(OC(C)=O)C(Cn1c2nc(=O)n(CCC[n+]3ccc(-c4cc[n+](C)cc4)cc3)c(=O)c-2nc2cc(C)c(C)cc21)OC(C)=O.[I-].[I-] (centres unmarked) [FL-08, 1-{3-[7,8-dimethyl-2,4-dioxo-10-(2,3,4,5-tetraacetoxypentyl)-4,10-dihydro-2H-benzo[g]pteridin-3-yl]propyl}methyl-[4,4′]bipyridinyl-1-ium diiodide] | 1 | 1 |  |  |
| CCCCn1c2nc(=O)n(CCC[n+]3ccc(-c4cc[n+](C)cc4)cc3)c(=O)c-2nc2cc(C)c(C)cc21.[I-].[I-] [FL-08b, 1-{3-[7,8-dimethyl-2,4-dioxo-10-(butyl)-4,10-dihydro-2H-benzo[g]pteridin-3-yl]-propyl}methyl-[4,4′]bipyridinyl-1-ium diiodide] | 50 | 10 |  |  |
| CC[N+](CC)(CC)Cc1cc2c(cc1C)nc1c(=O)n(CCN)c(=O)nc-1n2CCN.Cl.Cl.[Br-] [FL-13, [3,10-bis(2-aminoethyl)-7-methyl-2,4-dioxo-2,3,4,10-tetrahydro-benzo[g]pteridin-8-ylmethyl]triethylammonium bromide dihydrochloride] |  |  | 10 μM | 10 |
| CCCCn1c2nc(=O)n(CC[N+](C)(C)C)c(=O)c-2nc2cc(C)c(C[N+](CC)(CC)CC)cc21.[Br-].[Br-] [FL-15, [10-butyl-3-(2-trimethylammoniumethyl)-7-methyl-2,4-dioxo-2,3,4, 10-tetrahydrobenzo[g]pteridin-8-ylmethyl]triethylammonium dibromide] |  |  | 10 μM | 10 |
| Cc1cc2nc3c(=O)n(CC[N+](C)(C)C)c(=O)nc-3n(CC[N+](C)(C)C)c2cc1C.[I-].[I-] [FL-17, 3,10-bis(2-trimethylammoniumethyl)-7,8-dimethyl-10H-benzo[g]pteridine-2,4-dione dibromide] |  |  | 100 μM | 100 |
| Cc1cc2nc3c(=O)n(CCN)c(=O)nc-3n(CC[N+](C)(C)CCN)c2cc1C.Cl.Cl.[Cl-] [FL-24, (2-aminoethyl)-{2-[3-(2-aminoethyl)-7,8-dimethyl-2,4-dioxo-3,4-dihydro-2H-benzo[g]pteridin-10-yl]ethyl}dimethylammonium chloride dihydrochloride] |  |  | >100^(*^) μM | 10 |
| Cc1cc2nc3c(=O)n(CC[N+](C)(C)C)c(=O)nc-3n(CC[N+](C)(C)CC[N+](C)(C)C)c2cc1C.[Br-].[Br-].[Br-] [FL-26, 3-(2-trimethylammoniumethyl)-10-{2-[(2-trimethylammoniumethyl)dimethyl-ammonium]ethyl}-7,8-dimethyl-10H-benzo[g]pteridine-2,4-dione tribromide] |  |  | >100^(*^) μM | 10 |
| Cc1cc2nc3c(=O)[nH]c(=O)nc-3n(CCNCCN)c2cc1C.Cl.Cl [FL-27, (2-aminoethyl)-[2-(7,8-dimethyl-2,4-dioxo-3,4-dihydro-2H-benzo[g]pteridin-10-yl)ethyl]amine dihydrochloride] |  |  | 100 μM | 10 |
